Measurements: US20240383852A1, “ANTI-VIRAL COMPOUNDS” (INFEX Therapeutics Limited, priority 2021, published 2024)
Structures can show the parent of a compound that is named as a salt.

Columns and labels:
[1] = biological target: T1, SARS-CoV-2 PLpro (Severe acute respiratory syndrome coronavirus 2, UniProt P0DTD1); assay: biochemical; details: 60 nM papain-like protease, 50 μM Z-RLRGG-AMC, pH 7.5, 37° C.; read-out: SARS-CoV-2 PLpro IC50
T1 construct: containing 60 nM papain-like protease

[2] = system: human Hep G2 cells (ATCC HB-8065); assay: Cytotoxicity in Hep G2 cells (CellTiter-Glo); assay type: cell-based; details: Hep G2 cells, 100 μM test article, 24-hour exposure

SMILES	IC50 [1] [nM]	% Cell Viability [2] [%]
COc1cc(OC)c([C@@H](C)NC(=O)c2cc(N3CCN(C)CC3)ccc2C)cc1-c1ccccc1 [Example 216, N-[(1R)-1-(2,4-Dimethoxy-5-phenyl-phenyl)ethyl]-2-methyl-5-(4-methylpiperazin-1-yl)benzamide]	< 2000	0.6
Cc1ccc(N2CCN(C)CC2)cc1C(=O)N[C@H](C)c1ccc(F)c(-c2ccccc2)c1 [Example 218, N-[(1R)-1-(4-Fluoro-3-phenyl-phenyl)ethyl]-2-methyl-5-(4-methylpiperazin-1-yl)benzamide]	< 2000	1.5
Cc1ccc(N2CCN(C)CC2)cc1C(=O)N[C@H](C)c1ccc(OC(F)(F)F)c(-c2cnn(C)c2)c1 [Example 222, 2-Methyl-5-(4-methylpiperazin-1-yl)-N-[(1R)-1-[3-(1-methylpyrazol-4-yl)-4-(trifluoromethoxy)phenyl]ethyl]benzamide]	< 2000	7.4
Cc1ccc(N2CCN(C)CC2)cc1C(=O)N[C@H](C)c1cncc(-c2ccccc2)c1 [Example 223, 2-Methyl-5-(4-methylpiperazin-1-yl)-N-[(1R)-1-(5-phenyl-3-pyridyl)ethyl]benzamide]	< 2000	59.8
Cc1ccc(N2CCN(C)CC2)cc1C(=O)N[C@H](C)c1cncc(-c2cnn(C)c2)c1 [Example 224, 2-Methyl-5-(4-methylpiperazin-1-yl)-N-[(1R)-1-[5-(1-methylpyrazol-4-yl)-3-pyridyl]ethyl]benzamide]	< 5000	105.0
Cc1ccc(N2CCN(C)CC2)cc1C(=O)N[C@H](C)c1cncc(-c2cn(C)nc2C)c1 [Example 225, N-[(1R)-1-[5-(1,3-Dimethylpyrazol-4-yl)-3-pyridyl]ethyl]-2-methyl-5-(4-methylpiperazin-1-yl)benzamide]	< 10000	95.8
COc1c(-c2cnn(C)c2)cccc1[C@@H](C)NC(=O)c1cc(N2CCN(C)CC2)ccc1C [Example 226, N-[(1R)-1-[2-Methoxy-3-(1-methylpyrazol-4-yl)phenyl]ethyl]-2-methyl-5-(4-methylpiperazin-1-yl)benzamide]	< 10000	91.4
Cc1ccc(N2CCN(C)CC2)cc1C(=O)N[C@H](C)c1ccc(C)c(-c2cnn(C)c2)c1 [Example 228, 2-Methyl-N-[(1R)-1-[4-methyl-3-(1-methylpyrazol-4-yl)phenyl]ethyl]-5-(4-methylpiperazin-1-yl)benzamide]	< 2000	69.9
Cc1ccc(N2CCN(C)CC2)cc1C(=O)N[C@H](C)c1cc(F)cc(-c2cnn(C)c2)c1 [Example 229, N-[(1R)-1-[3-Fluoro-5-(1-methylpyrazol-4-yl)phenyl]ethyl]-2-methyl-5-(4-methylpiperazin-1-yl)benzamide]	< 2000	66.7
Cc1ccc(N2CCN(C)CC2)cc1C(=O)N[C@H](C)c1cc(-c2ccccc2)cs1 [Example 231, 2-Methyl-5-(4-methylpiperazin-1-yl)-N-[(1R)-1-(4-phenyl-2-thienyl)ethyl]benzamide]	< 2000	1.6
Cc1ccc(N2CCN(C)CC2)cc1C(=O)N[C@H](C)c1cc(-c2cnn(C)c2)cs1 [Example 232, 2-Methyl-5-(4-methylpiperazin-1-yl)-N-[(1R)-1-[4-(1-methylpyrazol-4-yl)-2-thienyl]ethyl]benzamide]	< 5000	75.2
COc1cc(-c2ccccc2)cc([C@@H](C)NC(=O)c2cc(N3CCN(C)CC3)ccc2C)c1 [Example 234, N-[(1R)-1-(3-Methoxy-5-phenyl-phenyl)ethyl]-2-methyl-5-(4-methylpiperazin-1-yl)benzamide]	< 2000	0.9
COc1ccc([C@@H](C)NC(=O)c2cc(N3CCN(C)CC3)ccc2C)cc1-c1nnc(C)s1 [Example 236, N-[(1R)-1-[4-Methoxy-3-(5-methyl-1,3,4-thiadiazol-2-yl)phenyl]ethyl]-2-methyl-5-(4-methylpiperazin-1-yl)benzamide]	< 2000	79.5
COc1ccc([C@@H](C)NC(=O)c2cc(N3CCN(C)CC3)ccc2C)cc1C1CCNCC1 [Example 237, N-[(1R)-1-[4-Methoxy-3-(4-piperidyl)phenyl]ethyl]-2-methyl-5-(4-methylpiperazin-1-yl)benzamide]	< 5000	87.9
COc1ccc([C@@H](C)NC(=O)c2cc(N3CCN(C)CC3)ccc2C)cc1C1CCN(CCC(=O)O)CC1 [Example 238, 3-[4-[2-Methoxy-5-[(1R)-1-[[2-methyl-5-(4-methylpiperazin-1-yl)benzoyl]amino]ethyl]phenyl]-1-piperidyl]propanoic Acid]	< 10000	119.7
COc1ccc([C@@H](C)NC(=O)c2cc(N3CC4CN(C)CC4C3)ccc2C)cc1-c1cnn(C)c1 (stereo partly drawn) [Example 240, N-[(1R)-1-[4-Methoxy-3-(1-methylpyrazol-4-yl)phenyl]ethyl]-2-methyl-5-(2-methyl-1,3,3a,4,6,6a-hexahydropyrrolo[3,4-c]pyrrol-5-yl)benzamide]	< 2000	64.3
COc1ccc([C@@H](C)NC(=O)c2cc(N3CCNC4(CC4)C3)ccc2C)cc1-c1cnn(C)c1 [Example 241, 5-(4,7-Diazaspiro[2.5]octan-7-yl)-N-[(1R)-1-[4-methoxy-3-(1-methylpyrazol-4-yl)phenyl]ethyl]-2-methyl-benzamide]	< 5000	84.2
COc1cc(-c2cnn(C)c2)cc([C@@H](C)NC(=O)c2cc(N3CC4CN(C)CC4C3)ccc2C)c1 (stereo partly drawn) [Example 242, N-[(1R)-1-[3-Methoxy-5-(1-methylpyrazol-4-yl)phenyl]ethyl]-2-methyl-5-(2-methyl-1,3,3a,4,6,6a-hexahydropyrrolo[3,4-c]pyrrol-5-yl)benzamide]	< 2000	62.4
COc1cc(-c2cnn(C)c2)cc([C@@H](C)NC(=O)c2cc(N3CCN4CCCC4C3)ccc2C)c1 (stereo partly drawn) [Example 243, 5-(3,4,6,7,8,8a-Hexahydro-1H-pyrrolo[1,2-a]pyrazin-2-yl)-N-[(1R)-1-[3-methoxy-5-(1-methylpyrazol-4-yl)phenyl]ethyl]-2-methyl-benzamide]	< 2000	70.9
COc1ccc([C@@H](C)NC(=O)c2cc(N3CCN(C)CC3)ccc2C)cc1-c1cnn(C)c1C [Example 246, N-[(1R)-1-[3-(1,5-Dimethylpyrazol-4-yl)-4-methoxy-phenyl]ethyl]-2-methyl-5-(4-methylpiperazin-1-yl)benzamide]	< 2000	81.4
COc1cc(-c2cnn(C)c2)cc([C@@H](C)NC(=O)c2cc(N3CCCN(C)CC3)ccc2C)c1 [Example 247, N-[(1R)-1-[3-Methoxy-5-(1-methylpyrazol-4-yl)phenyl]ethyl]-2-methyl-5-(4-methyl-1,4-diazepan-1-yl)benzamide]	< 2000	56.7
COc1cc(-c2ccnn2C)cc([C@@H](C)NC(=O)c2cc(N3C[C@H]4C[C@@H]3CN4C)ccc2C)c1 [Example 248, N-[(1R)-1-[3-Methoxy-5-(2-methylpyrazol-3-yl)phenyl]ethyl]-2-methyl-5-[(1R,4R)-5-methyl-2,5-diazabicyclo[2.2.1]heptan-2-yl]benzamide]	< 2000	55.3
Cc1ccc(N2CCN(C)CC2)cc1C(=O)N[C@H](C)c1ccc(OCc2ccccc2)c(-c2cnn(C)c2)c1 [Example 249, N-[(1R)-1-[4-Benzyloxy-3-(1-methylpyrazol-4-yl)phenyl]ethyl]-2-methyl-5-(4-methylpiperazin-1-yl)benzamide]	< 2000	0.5
Cc1ccc(N2CCN(C)CC2)cc1C(=O)N[C@H](C)c1ccc(OC(C)C)c(-c2cnn(C)c2)c1 [Example 250, N-[(1R)-1-[4-isopropoxy-3-(1-methylpyrazol-4-yl)phenyl]ethyl]-2-methyl-5-(4-methylpiperazin-1-yl)benzamide]	< 2000	93.0
COc1cc(-c2cn(C)nc2C)cc([C@@H](C)NC(=O)c2cc(N3CC4CN(C)CC4C3)ccc2C)c1 (stereo partly drawn) [Example 254, N-[(1R)-1-[3-(1,3-Dimethylpyrazol-4-yl)-5-methoxy-phenyl]ethyl]-2-methyl-5-(2-methyl-1,3,3a,4,6,6a-hexahydropyrrolo[3,4-c]pyrrol-5-yl)benzamide]	< 2000	57.0
COc1cc(-c2cn(C)nc2C)cc([C@@H](C)NC(=O)c2cc(N3CCN(CC4CC4)CC3)ccc2C)c1 [Example 255, 5-[4-(Cyclopropylmethyl)piperazin-1-yl]-N-[(1R)-1-[3-(1,3-dimethylpyrazol-4-yl)-5-methoxy-phenyl]ethyl]-2-methyl-benzamide hydrochloride salt]	< 2000	70.3
COc1cc(-c2cn(C)nc2C)cc([C@@H](C)NC(=O)c2cc(N3CCN4CCCC4C3)ccc2C)c1 (stereo partly drawn) [Example 256, 5-(3,4,6,7,8,8a-Hexahydro-1H-pyrrolo[1,2-a]pyrazin-2-yl)-N-[(1R)-1-[3-(1,3-dimethylpyrazol-4-yl)-5-methoxy-phenyl]ethyl]-2-methyl-benzamide]	< 2000	70.1
COc1ccc([C@@H](C)NC(=O)c2cc(N3CC4(CCNCC4)C3)ccc2C)cc1-c1cnn(C)c1 [Example 258, 5-(2,7-Diazaspiro[3.5]nonan-2-yl)-N-[(1R)-1-[4-methoxy-3-(1-methylpyrazol-4-yl)phenyl]ethyl]-2-methyl-benzamide]	< 2000	81.8
COc1ccc([C@@H](C)NC(=O)c2cc(N3CCC4(CC3)CNC4)ccc2C)cc1-c1cnn(C)c1 [Example 259, 5-(2,7-Diazaspiro[3.5]nonan-7-yl)-N-[(1R)-1-[4-methoxy-3-(1-methylpyrazol-4-yl)phenyl]ethyl]-2-methyl-benzamide]	< 2000	111.1
